Measurements published in PubChem BioAssay (NCI).
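Briefly, cells in 96-well plates were exposed to five compound concentrations for 48 h, and endpoints were estimated by linear interpolation. At the GI50, growth is halved. TGI: concentration producing complete growth inhibition.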

Assays:
Test in all cases: NCI tumour cell line growth inhibition, 48 h
CAKI-1 renal = test system: CAKI-1 renal
NCI-H460 lung = test system: NCI-H460 lung
OVCAR-5 ovarian = test system: OVCAR-5 ovarian
NCI/ADR-RES ovarian = test system: NCI/ADR-RES ovarian
SR leukemia = test system: SR leukemia
COLO 205 colon = test system: COLO 205 colon
IGROV1 ovarian = test system: IGROV1 ovarian
A498 renal = test system: A498 renal
SNB-75 CNS = test system: SNB-75 CNS
M14 melanoma = test system: M14 melanoma
OVCAR-4 ovarian = test system: OVCAR-4 ovarian
TK-10 renal = test system: TK-10 renal
KM12 colon = test system: KM12 colon
HCT-116 colon = test system: HCT-116 colon
MCF7 breast = test system: MCF7 breast
DU-145 prostate = test system: DU-145 prostate
RXF 393 renal = test system: RXF 393 renal
UO-31 renal = test system: UO-31 renal
T-47D breast = test system: T-47D breast
HOP-92 NSCLC = test system: HOP-92 NSCLC
MDA-MB-435 = test system: MDA-MB-435
RPMI-8226 leukemia = test system: RPMI-8226 leukemia
NCI-H226 lung = test system: NCI-H226 lung
SF-268 CNS = test system: SF-268 CNS
SF-295 CNS = test system: SF-295 CNS
EKVX NSCLC = test system: EKVX NSCLC
HT29 colon = test system: HT29 colon
UACC-257 melanoma = test system: UACC-257 melanoma
MALME-3M melanoma = test system: MALME-3M melanoma
NCI-H522 lung = test system: NCI-H522 lung
SF-539 CNS = test system: SF-539 CNS
ACHN renal = test system: ACHN renal
SK-OV-3 ovarian = test system: SK-OV-3 ovarian
K-562 leukemia = test system: K-562 leukemia
HCT-15 colon = test system: HCT-15 colon
OVCAR-3 ovarian = test system: OVCAR-3 ovarian
NCI-H23 lung = test system: NCI-H23 lung
HS 578T breast = test system: HS 578T breast
SK-MEL-2 melanoma = test system: SK-MEL-2 melanoma
CCRF-CEM leukemia = test system: CCRF-CEM leukemia
HCC-2998 colon = test system: HCC-2998 colon
SNB-19 CNS = test system: SNB-19 CNS
SK-MEL-5 melanoma = test system: SK-MEL-5 melanoma
U251 CNS = test system: U251 CNS
OVCAR-8 ovarian = test system: OVCAR-8 ovarian
SK-MEL-28 melanoma = test system: SK-MEL-28 melanoma
HL-60(TB) leukemia = test system: HL-60(TB) leukemia
LOX IMVI melanoma = test system: LOX IMVI melanoma
HOP-62 NSCLC = test system: HOP-62 NSCLC
BT-549 breast = test system: BT-549 breast
MOLT-4 leukemia = test system: MOLT-4 leukemia
MDA-MB-231 breast = test system: MDA-MB-231 breast
A549 NSCLC = test system: A549 NSCLC
SW-620 colon = test system: SW-620 colon

For `COc1ccccc1C1C(C#N)=C(N)OC2=C1C(=O)CCC2` (stereo not drawn), the GI50 (CAKI-1 renal) was over 100 µM, the TGI (CAKI-1 renal) was over 100 µM and the GI50 (NCI-H460 lung) was over 100 µM. The TGI (NCI-H460 lung) was over 100 µM, the GI50 (OVCAR-5 ovarian) was over 100 µM and the TGI (OVCAR-5 ovarian) was over 100 µM. It also gave a GI50 (NCI/ADR-RES ovarian) of over 100 µM, a TGI (NCI/ADR-RES ovarian) of over 100 µM and a GI50 (SR leukemia) of 14.2 µM. For the same molecule, the TGI (SR leukemia) was over 100 µM, the GI50 (COLO 205 colon) was over 100 µM and the TGI (COLO 205 colon) was over 100 µM. The GI50 (IGROV1 ovarian) was over 100 µM, the TGI (IGROV1 ovarian) was over 100 µM and the GI50 (A498 renal) was over 100 µM. For the same molecule, the TGI (A498 renal) was over 100 µM, the GI50 (SNB-75 CNS) was over 100 µM and the TGI (SNB-75 CNS) was over 100 µM. It also gave a GI50 (M14 melanoma) of over 100 µM, a TGI (M14 melanoma) of over 100 µM and a GI50 (OVCAR-4 ovarian) of over 100 µM. The TGI (OVCAR-4 ovarian) was over 100 µM, the GI50 (TK-10 renal) was over 100 µM and the TGI (TK-10 renal) was over 100 µM. It also gave a GI50 (KM12 colon) of over 100 µM, a TGI (KM12 colon) of over 100 µM and a GI50 (HCT-116 colon) of over 100 µM. For the same molecule, the TGI (HCT-116 colon) was over 100 µM, the GI50 (MCF7 breast) was over 100 µM and the TGI (MCF7 breast) was over 100 µM. It also gave a GI50 (DU-145 prostate) of over 100 µM, a TGI (DU-145 prostate) of over 100 µM and a GI50 (RXF 393 renal) of over 100 µM. It also gave a TGI (RXF 393 renal) of over 100 µM, a GI50 (UO-31 renal) of over 100 µM and a TGI (UO-31 renal) of over 100 µM. For the same molecule, the GI50 (T-47D breast) was over 100 µM, the TGI (T-47D breast) was over 100 µM and the GI50 (HOP-92 NSCLC) was 15.8 µM. For the same molecule, the TGI (HOP-92 NSCLC) was over 100 µM, the GI50 (MDA-MB-435) was over 100 µM and the TGI (MDA-MB-435) was over 100 µM. It also gave a GI50 (RPMI-8226 leukemia) of 5.77 µM, a TGI (RPMI-8226 leukemia) of 44.2 µM and a GI50 (NCI-H226 lung) of 74.2 µM. It also gave a TGI (NCI-H226 lung) of over 100 µM, a GI50 (SF-268 CNS) of over 100 µM and a TGI (SF-268 CNS) of over 100 µM. The GI50 (SF-295 CNS) was over 100 µM, the TGI (SF-295 CNS) was over 100 µM and the GI50 (EKVX NSCLC) was over 100 µM. For the same molecule, the TGI (EKVX NSCLC) was over 100 µM, the GI50 (HT29 colon) was over 100 µM and the TGI (HT29 colon) was over 100 µM. It also gave a GI50 (UACC-257 melanoma) of over 100 µM, a TGI (UACC-257 melanoma) of over 100 µM and a GI50 (MALME-3M melanoma) of over 100 µM. The TGI (MALME-3M melanoma) was over 100 µM, the GI50 (NCI-H522 lung) was over 100 µM and the TGI (NCI-H522 lung) was over 100 µM. For the same molecule, the GI50 (SF-539 CNS) was over 100 µM, the TGI (SF-539 CNS) was over 100 µM and the GI50 (ACHN renal) was over 100 µM. For the same molecule, the TGI (ACHN renal) was over 100 µM, the GI50 (SK-OV-3 ovarian) was over 100 µM and the TGI (SK-OV-3 ovarian) was over 100 µM. The GI50 (K-562 leukemia) was over 100 µM, the TGI (K-562 leukemia) was over 100 µM and the GI50 (HCT-15 colon) was over 100 µM. It also gave a TGI (HCT-15 colon) of over 100 µM, a GI50 (OVCAR-3 ovarian) of over 100 µM and a TGI (OVCAR-3 ovarian) of over 100 µM. For the same molecule, the GI50 (NCI-H23 lung) was over 100 µM, the TGI (NCI-H23 lung) was over 100 µM and the GI50 (HS 578T breast) was over 100 µM. The TGI (HS 578T breast) was over 100 µM, the GI50 (SK-MEL-2 melanoma) was over 100 µM and the TGI (SK-MEL-2 melanoma) was over 100 µM. It also gave a GI50 (CCRF-CEM leukemia) of 59.2 µM, a TGI (CCRF-CEM leukemia) of over 100 µM and a GI50 (HCC-2998 colon) of over 100 µM. It also gave a TGI (HCC-2998 colon) of over 100 µM, a GI50 (SNB-19 CNS) of over 100 µM and a TGI (SNB-19 CNS) of over 100 µM. The GI50 (SK-MEL-5 melanoma) was over 100 µM, the TGI (SK-MEL-5 melanoma) was over 100 µM and the GI50 (U251 CNS) was over 100 µM. It also gave a TGI (U251 CNS) of over 100 µM, a GI50 (OVCAR-8 ovarian) of over 100 µM and a TGI (OVCAR-8 ovarian) of over 100 µM. It also gave a GI50 (SK-MEL-28 melanoma) of over 100 µM, a TGI (SK-MEL-28 melanoma) of over 100 µM and a GI50 (HL-60(TB) leukemia) of over 100 µM. The TGI (HL-60(TB) leukemia) was over 100 µM, the GI50 (LOX IMVI melanoma) was over 100 µM and the TGI (LOX IMVI melanoma) was over 100 µM. The GI50 (HOP-62 NSCLC) was over 100 µM, the TGI (HOP-62 NSCLC) was over 100 µM and the GI50 (BT-549 breast) was over 100 µM. It also gave a TGI (BT-549 breast) of over 100 µM, a GI50 (MOLT-4 leukemia) of over 100 µM and a TGI (MOLT-4 leukemia) of over 100 µM. For the same molecule, the GI50 (MDA-MB-231 breast) was 16.2 µM, the TGI (MDA-MB-231 breast) was over 100 µM and the GI50 (A549 NSCLC) was over 100 µM. For the same molecule, the TGI (A549 NSCLC) was over 100 µM, the GI50 (SW-620 colon) was over 100 µM and the TGI (SW-620 colon) was over 100 µM.
